Reference: patent US20230346803A1, “COMPOSITIONS OF BERBERINE URSODEOXYCHOLATE AND METHODS THEREOF FOR TREATING PRIMARY SCLEROSING CHOLANGITIS” (SHENZHEN HIGHTIDE BIOPHARMACEUTICAL LTD., priority 2021, published 2023)

Tested on: adult subjects with PSC
Assay: Phase 2, multicenter, dose-ranging, 18-week, placebo-controlled study of BUDCA in PSC
Format: in vivo, human
Conditions: for Share of subjects achieving a 25% reduction in ALP: 0 subjects on placebo; for Percent change from Baseline in GGT at Week 6: all subjects
Protocol: A Phase 2, multicenter, dose-ranging, 18-week study was conducted comparing two dose regimens of BUDCA (500 mg BID and 1,000 mg BID) to placebo in adult subjects with PSC.
BUDCA drug product (also herein referred to as HTD1801) is a film-coated tablet containing 250 mg of berberine ursodeoxycholate.
The clinical study design consisted of an initial randomized, double-blind, placebo-and dose-controlled, parallel-group period (Period 1), followed by a dose-controlled extension period (Period 2), which is followed by a placebo-controlled randomized withdrawal period (Period 3). • Period 1: Subjects were randomized to receive BID doses of 500 mg, 1,000 mg, or matching placebo for 6 weeks. The primary analysis was based on this initial 6-week randomized, double-blind, placebo- and dose-controlled, parallel-group period. • Period 2: Subjects previously randomized to 500 mg BID or 1,000 mg BID continued for 6 more weeks at that previous dose, while subjects previously randomized to placebo were re-randomized to receive 6 weeks of either 500 mg BID or 1,000 mg BID. • Period 3: Subjects were re-randomized to either continue on the active treatment they had received in Period 2 or be assigned to placebo.
Patients with a known diagnosis of PSC based upon magnetic resonance cholangiopancreatography (MRCP) or endoscopic retrograde cholangiopancreatography (ERCP) findings were eligible for inclusion in this study. To be eligible for randomization into the study, serum ALP levels at screening had to be elevated at least above 1.5 times the upper limit of normal (ULN).
The primary endpoint was the absolute change in ALP from Baseline to Week 6 (Period 1).
For this study, 88 subjects with PSC were screened, 59 were randomized, 55 received at least 1 dose of study drug (safety population), and 54 had at least 1 post-dose efficacy assessment (modified intent-to-treat (mITT) population).
All statistical tests were two-sided with an alpha level of 0.05. The statistical analyses were conducted with the SAS® System version 9.4 or higher. All analyses were subject to formal verification procedures.

[1] = Baseline ALP <3x ULN, 500 mg BID (n=8)
[2] = Baseline ALP <3x ULN, 1,000 mg BID (n=16)
[3] = Baseline ALP ≥3x ULN, 500 mg BID (n=7)
[4] = Baseline ALP ≥3x ULN, 1,000 mg BID (n=8)

For `COc1ccc2cc3[n+](cc2c1OC)CCc1cc2c(cc1-3)OCO2.C[C@H](CCC(=O)[O-])[C@H]1CC[C@H]2[C@@H]3[C@@H](O)C[C@@H]4C[C@H](O)CC[C@]4(C)[C@H]3CC[C@]12C` [BUDCA, berberine ursodeoxycholate], the “Share of subjects achieving a 25% reduction in ALP” value (500 mg BID, prior UDCA use, week 6) was 33%, the “Percent change from Baseline in GGT at Week 6” value (500 mg BID) was -21% and the “Percent change in GGT at Week 6” value (500 mg BID, subjects without prior UDCA use) was -42%. The “Percent change from Baseline in GGT at Week 6” value (1,000 mg BID) was -40%, the “Percent change in GGT at Week 6” value (1,000 mg BID, subjects without prior UDCA use) was -67% and the “Mean (SD) change from Baseline to Week 6 in ALP” value (“Mean (SD) change … in ALP” for short) [1] was -13 (118) U/L. The “Mean (SD) change from Baseline to Week 6 in ALT” value (shortened to “Mean (SD) change … in ALT”) [1] was -63 (104) U/L, the “Mean (SD) change from Baseline to Week 6 in AST” value (“Mean (SD) change … in AST” below) [1] was -18 (41) U/L and the “Mean (SD) change … in ALP” value [2] was -20 (106) U/L. The “Mean (SD) change … in ALT” value [2] was -30 (72) U/L, the “Mean (SD) change … in AST” value [2] was -14 (26) U/L and the “Mean (SD) change … in ALP” value [3] was -138 (134) U/L. The “Mean (SD) change … in ALT” value [3] was -48 (74) U/L, the “Mean (SD) change … in AST” value [3] was -37 (49) U/L and the “Mean (SD) change … in ALP” value [4] was -185 (143) U/L. The “Mean (SD) change … in ALT” value [4] was -80 (56) U/L, the “Mean (SD) change … in AST” value [4] was -37 (39) U/L and the “Absolute change in ALP from Baseline to Week 6 (primary efficacy endpoint)” value (Period 1, both doses, compared to an increase in the placebo group) was “clinically meaningful and statistically significant decrease in ALP”. The “Number of subjects achieving ALP <1.5 x ULN” value (Period 3, pooled active-to-active groups, depending on the week examined) was 4-6, the “Reduction of GGT” value (Subject 18-003, 1,000 mg BID, Week 18) was ~ 10% and the “ALP relative to ULN” value (Subject 18-003, 1,000 mg BID, after Week 12 through Week 18, baseline 1.8-fold ULN, prior UDCA 15 mg/kg) was “below 1.5 fold ULN”. For the same compound, the “Reduction of GGT” value (Subject 23-004, 1,000 mg BID, Week 18) was roughly 50%, the “ALP relative to ULN” value (Subject 23-004, 1,000 mg BID, Week 18, baseline 2.6-fold ULN, prior UDCA 12 mg/kg) was “below 1.6 fold ULN” and the “Response rate with 1,000 mg BID compared with 500 mg BID, each efficacy endpoint” value (Week 6) was ~ 2 fold. The “Share of subjects achieving a 25% reduction in ALP” value (active treatment, subjects without prior UDCA use) was “Over half”, the “Mean total bilirubin, albumin, and platelets” value (all treatments throughout the study) was “remained stable and within normal range” and the Safety and tolerability (subjects with PSC, 500 mg BID and 1,000 mg BID, up to 18 weeks) was “safe and generally well tolerated”.
